Experimental data published in ChEMBL document CHEMBL1201862, “PubChem BioAssay data set” (2004).
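How tested: cells in 96-well plates exposed to compound for 48 hours at five concentrations. GI50 = concentration required for 50% inhibition of growth.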 Activity calls are given as the source filed them. No stated cut-off is given here; in the data, active = GI50 up to about 1.1 µM and inactive = higher.

Columns and labels:
Assay in all cases: NCI tumour cell line growth inhibition, 48 h
ACHN = system: ACHN
OVCAR-5 = system: OVCAR-5
SK-MEL-2 = system: SK-MEL-2
SK-MEL-5 = system: SK-MEL-5
TK-10 = system: TK-10
MDA-MB-435 = system: MDA-MB-435
MDA-MB-231 = system: MDA-MB-231
SW-620 = system: SW-620
SNB-19 = system: SNB-19
KM12 = system: KM12
NCI-H226 = system: NCI-H226
K562 = system: K562
MCF7 = system: MCF7
DU-145 = system: DU-145
SK-MEL-28 = system: SK-MEL-28
RXF 393 = system: RXF 393
OVCAR-8 = system: OVCAR-8
Hs-578T = system: Hs-578T
LOX IMVI = system: LOX IMVI
UACC-257 = system: UACC-257

Measured: GI50

CC(C)C1=CC23CCC4C(C)(C(=O)O)CCCC4(C)C2CC1C1C(=O)N(c2ccc(N4C(=O)C5C6CC7C8(C)CCCC(C)(C(=O)O)C8CCC7(C=C6C(C)C)C5C4=O)cc2)C(=O)C13 (centres undefined)
inactive: ACHN 5.9 µM | OVCAR-5 10.3 µM | SK-MEL-2 13.5 µM | SK-MEL-5 3.44 µM | TK-10 16.4 µM | MDA-MB-435 3.68 µM | MDA-MB-231 4.58 µM | SW-620 8.41 µM | SNB-19 4.75 µM | KM12 4.17 µM | NCI-H226 3.45 µM | K562 4.35 µM | MCF7 3.33 µM | DU-145 4.71 µM | SK-MEL-28 4.49 µM | RXF 393 11.7 µM | OVCAR-8 4.89 µM | Hs-578T 6.22 µM

CC(=O)c1nc2ccccc2n1CC(=O)c1ccc([N+](=O)[O-])cc1
inactive: TK-10 42.5 µM | MDA-MB-435 22 µM | MDA-MB-231 26.1 µM | SW-620 10.6 µM | SNB-19 13.5 µM | KM12 5.46 µM | NCI-H226 21.5 µM | K562 5.5 µM | MCF7 16.7 µM | DU-145 31.6 µM | SK-MEL-28 52.6 µM | RXF 393 23.8 µM | LOX IMVI 7.26 µM | OVCAR-8 8.49 µM | Hs-578T 6.68 µM | UACC-257 33.6 µM

O=C(c1ccc(Cl)cc1)N1CCN=C1c1cc2ccccc2c2ccccc12
inactive: ACHN 17.4 µM | OVCAR-5 19.8 µM | SK-MEL-2 15.6 µM | SK-MEL-5 14.8 µM | TK-10 15.2 µM | MDA-MB-435 15.7 µM | MDA-MB-231 16.2 µM | SW-620 17.3 µM | SNB-19 16.4 µM | KM12 15.8 µM | K562 27.7 µM | MCF7 17.7 µM | DU-145 17.9 µM | SK-MEL-28 15.5 µM | RXF 393 16.1 µM | LOX IMVI 17.8 µM | OVCAR-8 17.3 µM | Hs-578T 17.5 µM | UACC-257 17.5 µM

Cc1ccc(S(=O)(=O)NC(=O)C2C(=O)CC3(CCCCC3)CC2=O)cc1
inactive: ACHN 22.9 µM | OVCAR-5 24.4 µM | SK-MEL-5 25.4 µM | TK-10 23.5 µM | MDA-MB-435 32.1 µM | MDA-MB-231 36.1 µM | SW-620 27.6 µM | SNB-19 41.5 µM | KM12 19.6 µM | NCI-H226 34.8 µM | K562 38.1 µM | MCF7 22.8 µM | DU-145 37.5 µM | RXF 393 38.3 µM | LOX IMVI 55.2 µM | OVCAR-8 27.7 µM | Hs-578T 41.9 µM | UACC-257 28.6 µM

COc1cc2c(cc1OC)C13CC[N+]4(C)CC5=CCOC6CC(=O)N2C1C6C5CC34[O-] (centres undefined)
inactive: ACHN > 100 µM | SK-MEL-5 > 100 µM | TK-10 > 100 µM | MDA-MB-435 > 100 µM | MDA-MB-231 > 100 µM | SW-620 > 100 µM | SNB-19 > 100 µM | KM12 > 100 µM | NCI-H226 > 100 µM | K562 > 100 µM | MCF7 > 100 µM | DU-145 > 100 µM | SK-MEL-28 > 100 µM | RXF 393 > 100 µM | LOX IMVI > 100 µM | OVCAR-8 > 100 µM | Hs-578T > 100 µM | UACC-257 > 100 µM

Cc1csc2c(=O)n(C3OC(CO)C(O)C3O)c(=O)[nH]c12 (centres undefined)
inactive: ACHN > 100 µM | OVCAR-5 > 100 µM | SK-MEL-5 > 100 µM | TK-10 39.5 µM | MDA-MB-435 > 100 µM | MDA-MB-231 > 100 µM | SW-620 > 100 µM | SNB-19 > 100 µM | KM12 > 100 µM | NCI-H226 > 100 µM | K562 > 100 µM | MCF7 > 100 µM | DU-145 > 100 µM | SK-MEL-28 > 100 µM | RXF 393 > 100 µM | LOX IMVI > 100 µM | OVCAR-8 > 100 µM | Hs-578T > 100 µM | UACC-257 > 100 µM

C=C1C(=O)OC2(C)CCC1CC1OC1(C)CCC=C(C)CCC2O (centres undefined)
inactive: ACHN > 100 µM | OVCAR-5 > 100 µM | SK-MEL-2 75 µM | SK-MEL-5 > 100 µM | TK-10 > 100 µM | MDA-MB-435 44.3 µM | MDA-MB-231 > 100 µM | SW-620 45.4 µM | SNB-19 > 100 µM | KM12 > 100 µM | NCI-H226 > 100 µM | K562 31 µM | MCF7 > 100 µM | DU-145 55 µM | SK-MEL-28 > 100 µM | LOX IMVI > 100 µM | OVCAR-8 > 100 µM | Hs-578T 57.5 µM | UACC-257 > 100 µM

O=C1N=C(SC(SC2=NC(=O)C3(NN2)c2ccccc2-c2ccccc23)=C(SC2=NC(=O)C3(NN2)c2ccccc2-c2ccccc23)SC2=NC(=O)C3(NN2)c2ccccc2-c2ccccc23)NNC12c1ccccc1-c1ccccc12
inactive: ACHN 2.07 µM | SK-MEL-5 3.22 µM | TK-10 > 10 µM | MDA-MB-435 > 10 µM | MDA-MB-231 4.71 µM | SW-620 > 10 µM | SNB-19 > 10 µM | KM12 9.29 µM | NCI-H226 2.76 µM | K562 5.11 µM | MCF7 4.27 µM | DU-145 > 10 µM | SK-MEL-28 > 10 µM | RXF 393 > 10 µM | LOX IMVI > 10 µM | OVCAR-8 7.21 µM | Hs-578T > 10 µM | UACC-257 5.64 µM

N=c1oc2c(Cl)cc(Cl)cc2cc1C(=O)Nc1ccccn1
inactive: ACHN 22 µM | OVCAR-5 > 100 µM | SK-MEL-2 42.7 µM | SK-MEL-5 > 100 µM | TK-10 34.5 µM | MDA-MB-435 45.6 µM | MDA-MB-231 69.2 µM | SW-620 43.6 µM | SNB-19 34.7 µM | KM12 13.9 µM | NCI-H226 > 100 µM | K562 71 µM | MCF7 29.2 µM | DU-145 72.4 µM | SK-MEL-28 > 100 µM | RXF 393 19.8 µM | Hs-578T 20.5 µM | UACC-257 > 100 µM

CC(NC(=O)Cc1ccccc1)NC(=O)C(C)C(=O)Nc1ccccc1 (centres undefined)
inactive: ACHN 41.6 µM | OVCAR-5 > 100 µM | SK-MEL-2 > 100 µM | SK-MEL-5 > 100 µM | TK-10 33.3 µM | MDA-MB-435 > 100 µM | MDA-MB-231 65.6 µM | SW-620 > 100 µM | SNB-19 24 µM | KM12 > 100 µM | NCI-H226 23.3 µM | K562 > 100 µM | MCF7 > 100 µM | DU-145 > 100 µM | RXF 393 47.1 µM | OVCAR-8 34.8 µM | Hs-578T 23.7 µM | UACC-257 > 100 µM

COc1cc(C2S/C(=C/c3ccccc3)C(=O)N2Cc2ccccc2)cc(OC)c1OC (centres undefined)
inactive: ACHN 64.7 µM | OVCAR-5 > 100 µM | SK-MEL-2 39.1 µM | SK-MEL-5 28.2 µM | TK-10 > 100 µM | MDA-MB-435 25.5 µM | MDA-MB-231 > 100 µM | SNB-19 57.9 µM | KM12 36.1 µM | NCI-H226 > 100 µM | K562 21.8 µM | MCF7 61.1 µM | DU-145 47 µM | SK-MEL-28 88.9 µM | LOX IMVI 32.1 µM | OVCAR-8 37.6 µM | Hs-578T 30.2 µM | UACC-257 > 100 µM
